{
  "source": "patent US20090123377A1",
  "about": "“Method for Testing Substances or Mixtures of Substances,Use of Said Method and Corresponding Test Kits” (BASF AKTIENGESELLSCHAFT, priority 2005, published 2009)",
  "key": {"L-FABP": {"tested_on": "L-FABP", "settings": "rat, in vivo"}, "[1]": {"tested_on": "liver fatty acid binding protein (L-FABP)", "settings": "rat, in vivo"}, "[2]": {"tested_on": "liver fatty acid binding protein (L-FABP)", "assay": "Proteomic analysis (2D gel electrophoresis) of L-FABP expression in liver of exposed rats", "settings": "for L-FABP (PHEN_M_ID=3368, ETHI_F_ID=4302, HEXA_F_ID=4425) spot under the influence of treatment: 2D gel, rat liver, after 10 d (RUN2), PHEN_M male, ETHI_F and HEXA_F female rats; for amount of L-FABP in the liver, early change: after only a few hours of exposure, male animals (phenobarbital), females (alpha-hexachlorocyclohexane); for expression in the liver of L-FABP (ETHI_F_ID 4302) compared with the controls: longer exposure time and higher dosage, dose-dependent, statistical analysis of 2D gels"}},
  "note": "Where two headings read alike, the source gives them in different places.",
  "data": [
    {"compound": "Cc1ccc(N)cc1N", "note": "[2,4-diaminotoluene]", "values": [
      {"measurement": "L-FABP level by Western blotting", "setting": "L-FABP", "value": "no change in the L-FABP level"}
    ]},
    {"compound": "C#C[C@]1(O)CC[C@H]2[C@@H]3CCc4cc(O)ccc4[C@H]3CC[C@@]21C", "note": "[ethinylestradiol]", "values": [
      {"measurement": "L-FABP (PHEN_M_ID=3368, ETHI_F_ID=4302, HEXA_F_ID=4425) spot under the influence of treatment", "setting": "[1]", "value": "disappears"},
      {"measurement": "expression in the liver of L-FABP (ETHI_F_ID 4302) compared with the controls", "setting": "[1]", "value": "significantly less expression"}
    ]},
    {"compound": "ClC(Cl)(Cl)Cl", "note": "[tetrachloromethane]", "values": [
      {"measurement": "L-FABP level by Western blotting", "setting": "L-FABP", "value": "decrease in L-FABP"}
    ]},
    {"compound": "Cl[C@H]1[C@H](Cl)[C@H](Cl)[C@@H](Cl)[C@H](Cl)[C@H]1Cl", "note": "[alpha-hexachlorocyclohexane]", "values": [
      {"measurement": "L-FABP level by Western blotting", "setting": "L-FABP", "value": "confirm the results of the proteomic analysis"},
      {"measurement": "L-FABP (PHEN_M_ID=3368, ETHI_F_ID=4302, HEXA_F_ID=4425) spot under the influence of treatment", "setting": "[2]", "value": "disappears"},
      {"measurement": "amount of L-FABP in the liver, early change", "setting": "[2]", "value": "changed"},
      {"measurement": "expression in the liver of L-FABP (ETHI_F_ID 4302) compared with the controls", "setting": "[2]", "value": "significantly less expression"}
    ]},
    {"compound": "c1ccoc1", "note": "[furan]", "values": [
      {"measurement": "L-FABP level by Western blotting", "setting": "L-FABP", "value": "decrease in L-FABP"}
    ]},
    {"compound": "CCC1(c2ccccc2)C(=O)NC(=O)NC1=O", "note": "[phenobarbital]", "values": [
      {"measurement": "L-FABP level by Western blotting", "setting": "L-FABP", "value": "confirm the results of the proteomic analysis"},
      {"measurement": "L-FABP (PHEN_M_ID=3368, ETHI_F_ID=4302, HEXA_F_ID=4425) spot under the influence of treatment", "setting": "[2]", "value": "disappears"},
      {"measurement": "amount of L-FABP in the liver, early change", "setting": "[2]", "value": "changed"},
      {"measurement": "expression in the liver of L-FABP (ETHI_F_ID 4302) compared with the controls", "setting": "[2]", "value": "significantly less expression"}
    ]},
    {"compound": "Cc1c(N)cccc1N", "note": "[2,6-diaminotoluene]", "values": [
      {"measurement": "L-FABP level by Western blotting", "setting": "L-FABP", "value": "no change in the L-FABP level"}
    ]}
  ]
}
